Laboratory results as given in PMC7527816, “Molecular basis for the bifunctional Uba4–Urm1 sulfur‐relay system in tRNA thiolation and ubiquitin‐like conjugation” (The EMBO Journal, 2020).

Key:
CtUba4-CtUrm1 [1] = molecular target: T1, CtUba4-CtUrm1 (Thermochaetoides thermophila, UniProt G0SC54); experiment: GST pull-down of CtUba4 with GST-CtUrm1 (nucleotide-stabilised complex); assay type: binding; conditions: 1 mM nucleotide, 2 mM MgCl2, pH 6.0, 37 °C
T1 construct: gene uba4; full-length CtUba4 (1-444) plus CtUrm1, both from E. coli, tags TEV-cleaved (GST kept on CtUrm1 in pull-down); with Ubiquitin-related modifier 1

CtUba4 AD = molecular target: T2, CtUba4 AD (Thermochaetoides thermophila, UniProt G0SC54); experiment: thermal shift assay (SYPRO Orange); assay type: binding; conditions: 1 mM AMP, 2 mM MgCl2, 2 mM DTT, pH 7.5
T2 construct: gene uba4; adenylation domain aa 1-290, E. coli, His6-GST tag TEV-cleaved, dimer

CtUba4 (full length) = molecular target: T3, CtUba4 (full length) (Thermochaetoides thermophila, UniProt G0SC54); experiment: thermal shift assay (SYPRO Orange); assay type: binding; conditions: 1 mM AMP, 2 mM MgCl2, 2 mM DTT, pH 7.5
T3 construct: gene uba4; full length aa 1-444, codon-optimised, E. coli BL21(DE3) pRARE, His6 or His6-GST tag TEV-cleaved, homodimer

[2] = molecular target: T4, ADlinker 1-321 (with CtUrm1) (Thermochaetoides thermophila, UniProt G0SC54); experiment: pyrophosphate release (fluorometric kit); Malachite Green phosphate; assay type: biochemical; conditions: 20 μM ATP, CtUrm1 7.5 μM, 0.5 mM MgCl2, pH 6.0, 37 °C
T4 construct: gene uba4; adenylation domain plus complete linker, aa 1-321, E. coli; assayed with CtUrm1; with Ubiquitin-related modifier 1
T4 sequence (G0SC54 1-321): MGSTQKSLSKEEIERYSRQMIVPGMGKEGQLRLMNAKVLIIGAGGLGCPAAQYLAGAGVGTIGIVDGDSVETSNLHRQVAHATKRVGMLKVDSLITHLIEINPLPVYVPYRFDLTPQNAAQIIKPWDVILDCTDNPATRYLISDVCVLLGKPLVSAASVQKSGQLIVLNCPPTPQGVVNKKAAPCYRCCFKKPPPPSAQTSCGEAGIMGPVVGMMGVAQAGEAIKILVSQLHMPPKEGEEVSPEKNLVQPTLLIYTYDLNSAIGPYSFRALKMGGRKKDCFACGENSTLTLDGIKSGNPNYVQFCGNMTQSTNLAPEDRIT
T4 sequence (G0SE11 1-110 partner): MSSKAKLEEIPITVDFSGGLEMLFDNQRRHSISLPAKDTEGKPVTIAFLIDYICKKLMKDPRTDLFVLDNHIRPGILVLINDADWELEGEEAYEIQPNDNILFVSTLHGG

CtUba4-CtUrm1 [3] = molecular target: T5, CtUba4-CtUrm1 (Thermochaetoides thermophila, UniProt G0SC54, N307A/M308A); experiment: as above; assay type: biochemical; conditions: 20 μM ATP, CtUrm1 7.5 μM, 0.5 mM MgCl2, pH 6.0, 37 °C
T5 construct: gene uba4; full-length CtUba4 (1-444) plus CtUrm1, both from E. coli, tags TEV-cleaved (GST kept on CtUrm1 in pull-down); with Ubiquitin-related modifier 1

CtUba4-CtUrm1 [4] = molecular target: T1, CtUba4-CtUrm1; experiment: as above; assay type: biochemical; conditions: 20 μM ATP, CtUrm1 7.5 μM, 0.5 mM MgCl2, pH 6.0, 37 °C
[5] = molecular target: the molecule itself; experiment: crystal structure; apo full-length CtUba4, no nucleotide; 50 mM HEPES pH 6.9-7.0, PEG 4000, 21°C; 2.2 Å
[6] = molecular target: the molecule itself; experiment: crystal structure; CtUba4 C202K, CtUrm1 and ATP (1.00:1.25:2.25) incubated in 100 mM MES pH 6.0, 100 mM NaCl, 2 mM MgCl2 at 37°C for 30 min, complex isolated on Superdex 200 Increase; crystals in 0.1 M HEPES pH 7.5, 20% PEG 3350; 3.15 Å
[7] = molecular target: the molecule itself; experiment: SEC + SEC-MALS; SEC profiles and static light scattering (RALS/LALS) after Superdex 75 10/300 GL; 1 mg/ml; 20 mM Tris pH 7.5, 150 mM NaCl, 1 mM DTT

T5 sequence (G0SC54 entry or part of it N307A/M308A, one chain of several): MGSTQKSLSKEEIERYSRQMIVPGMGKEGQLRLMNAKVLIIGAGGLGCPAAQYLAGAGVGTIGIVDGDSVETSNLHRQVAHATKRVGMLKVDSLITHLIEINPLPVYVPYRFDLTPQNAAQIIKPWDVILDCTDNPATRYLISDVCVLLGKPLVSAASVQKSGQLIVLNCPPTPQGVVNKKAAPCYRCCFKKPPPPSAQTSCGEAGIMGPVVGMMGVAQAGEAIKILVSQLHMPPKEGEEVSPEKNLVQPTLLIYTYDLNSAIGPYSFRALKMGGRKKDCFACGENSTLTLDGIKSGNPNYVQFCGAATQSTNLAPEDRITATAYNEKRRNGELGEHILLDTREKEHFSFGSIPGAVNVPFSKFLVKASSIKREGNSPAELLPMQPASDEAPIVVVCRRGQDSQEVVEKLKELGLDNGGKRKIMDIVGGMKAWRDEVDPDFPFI

Nc1ncnc2c1ncn2[C@@H]1O[C@H](COP(=O)(O)OP(=O)(O)NP(=O)(O)O)[C@@H](O)[C@H]1O [AMP-PNP]
GST pull-down of CtUba4 with GST-CtUrm1 (nucleotide-stabilised complex) (CtUba4-CtUrm1 [1]): complex is stabilized most efficiently in the presence of ATP and AMP‐PNP

Nc1ncnc2c1ncn2[C@@H]1O[C@H](COP(=O)(O)O)[C@@H](O)[C@H]1O [AMP]
melting temperature (CtUba4 AD): AMP increased the thermal stability of full‐length Uba4 and the AD alone
melting temperature (CtUba4 (full length)): AMP increased the thermal stability of full‐length Uba4 and the AD alone

Nc1ncnc2c1ncn2[C@@H]1O[C@H](COP(=O)(O)OP(=O)(O)OP(=O)(O)O)[C@@H](O)[C@H]1O [ATP]
pyrophosphate release (fluorometric kit); Malachite Green phosphate [2]: it stimulates the ATP hydrolysis activity of the AD in the presence of Urm1
pyrophosphate release (fluorometric kit); Malachite Green phosphate (CtUba4-CtUrm1 [3]): mutations of the linker residues Asn307 and Met308
pyrophosphate release (fluorometric kit); Malachite Green phosphate (CtUba4-CtUrm1 [4]): ATP hydrolysis capacity of CtUba4 WT and mutants in the presence of CtUrm1

B1: Chaetomium thermophilum Uba4 (ubiquitin-like protein activator 4), full length, wild type (enzyme, UniProt G0SC54 1-444, looked up)
chain: MGSTQKSLSKEEIERYSRQMIVPGMGKEGQLRLMNAKVLIIGAGGLGCPAAQYLAGAGVGTIGIVDGDSVETSNLHRQVAHATKRVGMLKVDSLITHLIEINPLPVYVPYRFDLTPQNAAQIIKPWDVILDCTDNPATRYLISDVCVLLGKPLVSAASVQKSGQLIVLNCPPTPQGVVNKKAAPCYRCCFKKPPPPSAQTSCGEAGIMGPVVGMMGVAQAGEAIKILVSQLHMPPKEGEEVSPEKNLVQPTLLIYTYDLNSAIGPYSFRALKMGGRKKDCFACGENSTLTLDGIKSGNPNYVQFCGNMTQSTNLAPEDRITATAYNEKRRNGELGEHILLDTREKEHFSFGSIPGAVNVPFSKFLVKASSIKREGNSPAELLPMQPASDEAPIVVVCRRGQDSQEVVEKLKELGLDNGGKRKIMDIVGGMKAWRDEVDPDFPFI
notes: Uba4 of Chaetomium thermophilum, UniProt G0SC54, full length aa 1-444; Expressed from pETM30 (N-terminal His6 and GST) and pETM11 (N-terminal His6); tags cleaved with TEV; Codon-optimised gene; also called CtUba4; CtUba4 FL; source: E. coli BL21(DE3) pRARE, purified (Ni-NTA, TEV cleavage, second Ni-NTA, SEC Superdex 200); not shown: His6, N-terminal, cleaved
stoichiometry N [5]: 2

B2: CtUba4 C202K, full length (enzyme, Chaetomium thermophilum, UniProt G0SC54 1-444, looked up)
chain: MGSTQKSLSKEEIERYSRQMIVPGMGKEGQLRLMNAKVLIIGAGGLGCPAAQYLAGAGVGTIGIVDGDSVETSNLHRQVAHATKRVGMLKVDSLITHLIEINPLPVYVPYRFDLTPQNAAQIIKPWDVILDCTDNPATRYLISDVCVLLGKPLVSAASVQKSGQLIVLNCPPTPQGVVNKKAAPCYRCCFKKPPPPSAQTSKGEAGIMGPVVGMMGVAQAGEAIKILVSQLHMPPKEGEEVSPEKNLVQPTLLIYTYDLNSAIGPYSFRALKMGGRKKDCFACGENSTLTLDGIKSGNPNYVQFCGNMTQSTNLAPEDRITATAYNEKRRNGELGEHILLDTREKEHFSFGSIPGAVNVPFSKFLVKASSIKREGNSPAELLPMQPASDEAPIVVVCRRGQDSQEVVEKLKELGLDNGGKRKIMDIVGGMKAWRDEVDPDFPFI
notes: Uba4 of Chaetomium thermophilum, UniProt G0SC54, full length aa 1-444 with C202K; With Urm1 and ATP the epsilon-amino group of Lys202 forms a non-hydrolysable iso-peptide bond with Gly111 of Urm1; The RHD is present in the crystals but has no density; source: E. coli BL21(DE3) pRARE, purified (Ni-NTA, TEV cleavage, SEC Superdex 200); not shown: His6, N-terminal, cleaved
stoichiometry N [6]: 2

B3: CtUba4 adenylation domain (1-290) (domain or fragment, Chaetomium thermophilum, UniProt G0SC54 1-290, looked up)
chain: MGSTQKSLSKEEIERYSRQMIVPGMGKEGQLRLMNAKVLIIGAGGLGCPAAQYLAGAGVGTIGIVDGDSVETSNLHRQVAHATKRVGMLKVDSLITHLIEINPLPVYVPYRFDLTPQNAAQIIKPWDVILDCTDNPATRYLISDVCVLLGKPLVSAASVQKSGQLIVLNCPPTPQGVVNKKAAPCYRCCFKKPPPPSAQTSCGEAGIMGPVVGMMGVAQAGEAIKILVSQLHMPPKEGEEVSPEKNLVQPTLLIYTYDLNSAIGPYSFRALKMGGRKKDCFACGENSTLT
notes: Uba4 of Chaetomium thermophilum, UniProt G0SC54, adenylation domain residues 1-290; source: E. coli BL21(DE3) pRARE, purified (Ni-NTA, TEV cleavage, SEC); not shown: His6, N-terminal, cleaved; GST, N-terminal, cleaved
stoichiometry N [7]: 2

B4: CtUba4 rhodanese-like domain (319-444) (domain or fragment, Chaetomium thermophilum, UniProt G0SC54 319-444, looked up)
chain: RITATAYNEKRRNGELGEHILLDTREKEHFSFGSIPGAVNVPFSKFLVKASSIKREGNSPAELLPMQPASDEAPIVVVCRRGQDSQEVVEKLKELGLDNGGKRKIMDIVGGMKAWRDEVDPDFPFI
notes: Uba4 of Chaetomium thermophilum, UniProt G0SC54, rhodanese-like domain residues 319-444; also called CtUba4 RHD; RHD; source: E. coli BL21(DE3) pRARE, purified (Ni-NTA, TEV cleavage, SEC Superdex 75); not shown: His6, N-terminal, cleaved; GST, N-terminal, cleaved
stoichiometry N [7]: 2
